Molecular target: T1, NK3 receptor (Cavia porcellus, UniProt P30098)
T1 construct: contractile effects of the selective NK3 receptor agonist senktide in the guinea-pig ileum; from tissue; host or cells: guinea-pig ileum
T1 sequence (P30098 1-440): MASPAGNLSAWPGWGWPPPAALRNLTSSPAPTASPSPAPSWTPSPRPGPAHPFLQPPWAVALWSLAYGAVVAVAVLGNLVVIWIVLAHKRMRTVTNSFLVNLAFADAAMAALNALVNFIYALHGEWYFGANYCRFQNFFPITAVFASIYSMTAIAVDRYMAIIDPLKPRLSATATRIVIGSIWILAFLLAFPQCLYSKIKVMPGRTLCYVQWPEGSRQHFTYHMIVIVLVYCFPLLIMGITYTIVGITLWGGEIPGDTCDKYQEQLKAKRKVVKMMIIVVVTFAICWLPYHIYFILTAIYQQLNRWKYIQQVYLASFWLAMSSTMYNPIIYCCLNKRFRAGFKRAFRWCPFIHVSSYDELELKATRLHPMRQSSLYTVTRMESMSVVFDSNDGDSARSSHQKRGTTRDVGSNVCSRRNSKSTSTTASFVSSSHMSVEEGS
Assay: NK3 receptor antagonist activity in vitro: antagonism of contractile effects of senktide in guinea-pig ileum
Conditions: antagonism of contractile effects of the selective NK3 receptor agonist senktide, read-out: pIC50 for NK3 activity (converted)
Excerpt: The compounds of the formula (I) and their salts can be tested for NK3 receptor antagonist activity, in vitro, by testing their ability to antagonise the contractile effects of the selective NK3 receptor agonist senktide in the guinea-pig ileum using the method of Maggi et al, Br. J. Pharmacol., 101, 996-1000 (1 990).

`NS(=O)(=O)N1CCN(C2CN(CCCC3(c4ccc(Cl)c(Cl)c4)CCCN(C(=O)c4ccccc4)C3)C2)CC1` (stereo not shown) [Example 2] showed an IC50 of 3.98 nM.
